Test results reported in ChEMBL document CHEMBL1201862, “PubChem BioAssay data set” (2004).
Activity calls are given as the source filed them.

Experiments:
[1] = viability loss in THP-1 monocytes – THP-1 cells, cytotoxicity control for Vif-APOBEC3G degradation inhibitor project, dose response (AID 1117359); type: functional; details: THP-1
[2] = target: Cytochrome P450 2D6 (Homo sapiens, UniProt P10635);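 also: CYP2D6 member of a cytochrome P450 panel assay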
[3] = target: T1, Cytochrome P450 3A4 (Homo sapiens, UniProt P08684); details: Potency
[4] = test system: HeLa; assay: viability loss in HeLa cells – cell-based, 24 h, cherry-picked samples, cytotoxicity control, dose response (AID 504726); type: functional; details: Homo sapiens;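 also: potency for cytotoxicity as loss of luminescence signal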
[5] = target: T2, fMet-Leu-Phe receptor (Homo sapiens, UniProt P21462); assay: formyl peptide receptor binders – dose response (AID 519); type: functional
T2 sequence (P21462 whole entry): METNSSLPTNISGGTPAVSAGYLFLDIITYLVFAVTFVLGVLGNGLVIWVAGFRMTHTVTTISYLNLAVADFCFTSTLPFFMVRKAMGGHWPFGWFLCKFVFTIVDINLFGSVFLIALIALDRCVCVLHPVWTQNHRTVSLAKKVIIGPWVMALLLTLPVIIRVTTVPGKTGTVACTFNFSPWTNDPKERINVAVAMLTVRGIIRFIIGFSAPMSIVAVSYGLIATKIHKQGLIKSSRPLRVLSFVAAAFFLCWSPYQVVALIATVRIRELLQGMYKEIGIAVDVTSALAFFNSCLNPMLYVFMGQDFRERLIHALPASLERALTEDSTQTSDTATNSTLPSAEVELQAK

[6] = Luminescence Cell-Based Dose Confirmation HTS to Identify Inhibitors of Platelet Dense Granule Release. [Related pubchem assays: 1663 (Primary HTS), 1678 (Summary of Project)]; type: functional
[7] = target: T3, Heat shock factor protein 1 (Mus musculus, UniProt P38532); assay: decrease of HSF1-responsive luciferase luminescence – cell-based, NIH3T3, dose retest, confirmation (AID 2382); type: functional;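 also: NIH3T3 fibroblasts with HSF1-driven luciferase reporter stressed by proteasome inhibitor MG132; luminescence from HSF1-driven luciferase expression after 8 hours of MG132 stress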
T3 sequence (P38532 whole entry): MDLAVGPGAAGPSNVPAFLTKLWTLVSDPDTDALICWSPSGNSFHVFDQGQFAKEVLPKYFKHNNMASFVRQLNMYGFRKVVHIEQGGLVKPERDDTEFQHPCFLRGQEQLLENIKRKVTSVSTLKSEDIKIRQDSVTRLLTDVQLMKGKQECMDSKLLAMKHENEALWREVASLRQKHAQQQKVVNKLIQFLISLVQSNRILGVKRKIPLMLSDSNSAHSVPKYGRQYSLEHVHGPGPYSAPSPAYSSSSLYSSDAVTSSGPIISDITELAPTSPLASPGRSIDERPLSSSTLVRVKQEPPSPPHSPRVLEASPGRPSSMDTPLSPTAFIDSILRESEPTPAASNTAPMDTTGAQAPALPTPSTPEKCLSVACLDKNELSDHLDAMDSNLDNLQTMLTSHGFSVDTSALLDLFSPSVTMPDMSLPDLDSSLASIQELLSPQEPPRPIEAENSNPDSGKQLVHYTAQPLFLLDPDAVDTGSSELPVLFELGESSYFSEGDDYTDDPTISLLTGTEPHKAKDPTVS

[8] = target: Luciferin 4-monooxygenase (Photinus pyralis, UniProt P08659); assay: inhibition of purified Photinus pyralis luciferase – biochemical, luminescence, dose response (AID 1891)
[9] = blockade of melanocortin 4 receptor signaling – cell-based, plate reader, cherry pick, counter-screen for LGR2 antagonist project, dose response (AID 743444); type: functional;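 also: transfected HEK 293 cells stimulated with alpha-MSH peptide; potency of inhibitors of the alpha-MSH evoked signal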
[10] = viability loss in HEK293 cells – cell-based, plate reader, cherry-picked samples, cytotoxicity control, dose response (AID 743446); type: functional
[11] = luciferase reporter signal suppression in cells – H4 neuroglioma cells, luminescence, dose response (AID 1990); type: functional, cell-based
[12] = A549 cell cytotoxicity, dose response, cytotoxicity control, plate reader, cherry-pick, antagonist series (AID 743412); type: functional, cell-based
[13] = alpha-synuclein stem-loop luciferase translation blockers – H4 neuroglioma cells, luminescence, confirmation (AID 1988); type: functional, cell-based
[14] = blockers of bursicon-stimulated LGR2 cAMP reporter – cell-based, HEK293, CRE-luciferase reporter, cherry pick, set 2, dose response (AID 743343); type: functional;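 also: transfected cells were stimulated with diluted bursicon conditioned medium after compound addition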
[15] = Luminescence Cell-Based Dose Response HTS to Identify Inhibitors of 5'UTR Stem-Loop Driven Prion Protein mRNA Translation in H4 Neuroglioblastoma Cells. [Related pubchem assays: 1827 (Project Summary), 1813 (Primary HTS)]; type: functional
[16] = target: T4, Streptokinase A (Streptococcus pyogenes serotype M1, UniProt P10520); assay: viability-normalized secreted streptokinase activity reduction – plasminogen activation absorbance, OD405, dose response (AID 1914); type: functional, Streptococcus pyogenes M1 GAS;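 also: secreted streptokinase activity via plasminogen activation per viability signal from cell pellet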
T4 sequence (P10520 whole entry): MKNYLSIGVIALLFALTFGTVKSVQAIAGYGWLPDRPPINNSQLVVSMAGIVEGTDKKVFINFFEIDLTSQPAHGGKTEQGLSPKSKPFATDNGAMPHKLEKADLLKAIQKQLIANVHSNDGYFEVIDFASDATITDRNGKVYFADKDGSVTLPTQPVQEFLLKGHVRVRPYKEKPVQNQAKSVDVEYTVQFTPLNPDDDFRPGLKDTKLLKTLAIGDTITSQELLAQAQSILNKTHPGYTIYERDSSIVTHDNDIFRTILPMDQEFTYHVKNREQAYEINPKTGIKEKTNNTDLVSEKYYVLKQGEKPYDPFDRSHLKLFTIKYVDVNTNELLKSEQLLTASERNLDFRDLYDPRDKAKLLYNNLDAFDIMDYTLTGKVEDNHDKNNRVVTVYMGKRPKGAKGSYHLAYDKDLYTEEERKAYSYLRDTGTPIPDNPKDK

[17] = test system: Streptococcus; assay: GAS UMAA2166 growth inhibition – luminescence, BacTiterGlo, counter-screen for streptokinase expression inhibitor project, dose response (AID 1915); type: functional, organism-based;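 also: potency for reduction of bacterial viability or growth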
[18] = test system: Streptococcus sp. 'group A'; assay: Streptococcus pyogenes SK(-)GAS viability under kanamycin – luminescence, BacTiterGlo, confirmation, counter-screen for streptokinase expression inhibitor project, dose response (AID 1900); type: functional, organism-based
[19] = target: T5, X-box-binding protein 1 (Homo sapiens, UniProt P17861); type: functional, Cricetulus griseus;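 also: confirmatory dose-response counter-screen serving a CHOP assay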
T5 sequence (P17861 whole entry): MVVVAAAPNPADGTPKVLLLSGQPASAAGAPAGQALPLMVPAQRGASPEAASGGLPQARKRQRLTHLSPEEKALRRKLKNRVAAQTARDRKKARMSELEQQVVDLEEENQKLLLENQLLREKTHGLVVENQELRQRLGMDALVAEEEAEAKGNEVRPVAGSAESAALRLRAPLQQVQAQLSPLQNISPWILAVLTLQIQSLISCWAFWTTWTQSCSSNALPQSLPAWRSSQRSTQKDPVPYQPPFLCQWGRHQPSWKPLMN

[20] = target: T1, Cytochrome P450 3A4
[21] = cells; type: functional
[22] = toxicity toward HepG2 liver cells – cell-based, plate reader, cherry-pick, antagonist series, cytotoxicity control, dose response (AID 743416); type: functional
[23] = THP-1 cell cytotoxicity, dose response, cytotoxicity control for non-replicating M. tuberculosis project (AID 489025); type: functional
[24] = A cytotoxicity screen of small molecule inhibitors of the PhoP region in Salmonella typhi identified in the primary screen. [Related pubchem assays: 1850, 1864, 1985 ]; type: functional

T1 sequence (P08684 whole entry): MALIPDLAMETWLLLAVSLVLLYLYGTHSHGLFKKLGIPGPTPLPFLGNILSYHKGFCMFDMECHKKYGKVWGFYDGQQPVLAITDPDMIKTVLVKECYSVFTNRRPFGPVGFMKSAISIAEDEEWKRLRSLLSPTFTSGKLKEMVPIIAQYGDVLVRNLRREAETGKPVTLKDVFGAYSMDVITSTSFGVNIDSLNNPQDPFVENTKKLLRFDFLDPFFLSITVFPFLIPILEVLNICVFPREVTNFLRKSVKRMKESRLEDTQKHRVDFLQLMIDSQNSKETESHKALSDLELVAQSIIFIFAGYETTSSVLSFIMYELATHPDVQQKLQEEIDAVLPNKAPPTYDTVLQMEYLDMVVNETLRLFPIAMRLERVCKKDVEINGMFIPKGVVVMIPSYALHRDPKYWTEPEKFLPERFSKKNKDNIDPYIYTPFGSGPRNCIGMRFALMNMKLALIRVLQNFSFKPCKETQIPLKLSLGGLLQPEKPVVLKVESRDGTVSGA
Cytochrome P450 2D6, sequence (P10635 whole entry): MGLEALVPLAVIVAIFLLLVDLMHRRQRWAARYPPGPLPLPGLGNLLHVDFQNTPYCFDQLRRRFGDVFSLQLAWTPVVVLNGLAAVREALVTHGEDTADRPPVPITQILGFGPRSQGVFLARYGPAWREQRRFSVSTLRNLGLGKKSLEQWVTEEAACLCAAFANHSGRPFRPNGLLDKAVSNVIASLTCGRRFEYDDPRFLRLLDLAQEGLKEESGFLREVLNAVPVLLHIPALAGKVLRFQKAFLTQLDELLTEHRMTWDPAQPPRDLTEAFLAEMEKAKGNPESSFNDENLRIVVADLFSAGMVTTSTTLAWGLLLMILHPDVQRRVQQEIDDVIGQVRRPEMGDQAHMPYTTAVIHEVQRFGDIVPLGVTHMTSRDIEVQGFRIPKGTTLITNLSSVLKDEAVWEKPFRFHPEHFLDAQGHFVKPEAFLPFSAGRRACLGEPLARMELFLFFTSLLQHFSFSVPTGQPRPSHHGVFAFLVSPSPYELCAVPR
Luciferin 4-monooxygenase, sequence (P08659 whole entry): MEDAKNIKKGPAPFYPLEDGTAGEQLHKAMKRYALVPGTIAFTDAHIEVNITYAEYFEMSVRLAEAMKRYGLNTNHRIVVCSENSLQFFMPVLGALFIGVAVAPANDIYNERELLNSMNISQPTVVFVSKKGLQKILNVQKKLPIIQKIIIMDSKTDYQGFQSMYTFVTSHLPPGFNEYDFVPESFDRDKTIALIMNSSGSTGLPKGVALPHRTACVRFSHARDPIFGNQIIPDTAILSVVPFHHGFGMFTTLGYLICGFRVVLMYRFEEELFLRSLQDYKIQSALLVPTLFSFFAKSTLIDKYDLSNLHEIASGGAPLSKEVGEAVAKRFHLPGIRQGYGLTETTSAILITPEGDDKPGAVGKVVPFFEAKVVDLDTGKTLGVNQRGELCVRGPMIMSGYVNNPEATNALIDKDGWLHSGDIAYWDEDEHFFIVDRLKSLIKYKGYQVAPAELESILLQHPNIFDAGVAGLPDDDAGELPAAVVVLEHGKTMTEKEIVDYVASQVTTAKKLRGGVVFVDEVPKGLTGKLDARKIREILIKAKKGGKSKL

SMILES: Oc1ccc(C2Nc3cccc4cccc(c34)N2)c(O)c1
- CC50 [1]: > 40 µM (active)
- AC50 [2]: 25.1 µM (inconclusive)

SMILES: COCCNC(=O)[C@H](C)/C=C/C(NC(=O)OCc1ccccc1)c1ccc(C(=O)OC)cc1 (stereo partly specified)
- AC50 [3]: 7.94 µM (inconclusive)

SMILES: CN(C)c1ccc(/C=C2\CCCN=C2c2cccnc2)cc1
- AC50 [3]: 10 µM (inconclusive)

SMILES: COc1cccc(NC(=O)CN(C)CC(=O)NCc2ccco2)c1
- AC50 [4]: 115 µM (active)

SMILES: COC(=O)[C@@H]1C[C@@]2(O)[C@H](O)[C@H](O)[C@H](O)C[C@H]2N1Cc1c(F)cccc1Cl
- AC50 [3]: 25.1 µM (inconclusive)

SMILES: CCOC(=O)C(C)(C)N(Cc1ccccc1C)S(=O)(=O)c1ccc(Cl)c([N+](=O)[O-])c1
- AC50 [4]: 29.8 µM (active)

SMILES: COc1ccc(C2C(C(=O)c3ccco3)=C(O)C(=O)N2Cc2cccnc2)cc1OC (stereo unspecified)
- Ki [5]: > 66.7 µM (inactive)

SMILES: O=C(Nc1ccc(-c2nc3cccnc3s2)cc1)C1CCCO1 (stereo unspecified)
- EC50 [6]: 4.58 µM (active)
- EC50 [7]: 11.3 µM (active)
- EC50 [8]: 6.36 µM (active)
- AC50 [9]: 2.45 µM (active)
- AC50 [10]: 38.4 µM (active)
- EC50 [11]: 6.46 µM (inconclusive)
- AC50 [12]: > 52 µM (inactive)
- EC50 [13]: 4.56 µM (active)
- AC50 [14]: 1.98 µM (active)
- EC50 [15]: 6.12 µM (active)

SMILES: CCN(c1ccc(C)cc1C)S(=O)(=O)c1nnc(NC(=O)c2ccco2)s1
- EC50 [16]: 17.5 µM (active)
- AC50 [4]: 60.2 µM (active)
- EC50 [17]: 43.1 µM (active)
- EC50 [18]: 2.15 µM (active)

SMILES: O=C(Nc1cc(Cl)ccc1O)c1cc2n(n1)C(C(F)(F)F)CC(c1ccc3c(c1)OCO3)N2 (stereo unspecified)
- Absolute IC50 (XBP1) [19]: 10 µM

SMILES: CCOc1cc(C2C(C(=O)c3ccc(C)o3)=C(O)C(=O)N2CCc2ccccc2)ccc1O (stereo unspecified)
- Ki [5]: 30.4 µM (inactive)

SMILES: Cc1nc2c(C#N)c(C)nn2c(O)c1Cc1ccccc1
- AC50 [20]: 25.1 µM (inconclusive)
- Ki [5]: 50 µM (inactive)

SMILES: Cc1ccc(C(=O)n2c(N)nc3ccccc32)cc1
- EC50 [16]: > 150 µM (not active)
- AC50 [9]: 1.43 µM (active)
- IC50 [21]: 6.64 µM (active)
- AC50 [10]: > 52 µM (inactive)
- AC50 [22]: > 52 µM (inactive)
- AC50 [12]: 24.9 µM (active)
- EC50 [17]: 115 µM (active)
- AC50 [14]: 1.44 µM (active)
- CC50 [23]: > 40 µM (active)
- EC50 [18]: 13.2 µM (active)

SMILES: COc1ccc(CC(=O)N(Cc2cc3cc(OC)ccc3nc2O)C(C)C)cc1
- EC50 [24]: > 50 µM (active)

SMILES: O=C(CCn1cccc1)Nc1ccc(OC(F)(F)F)cc1
- EC50 [24]: > 50 µM (active)

SMILES: C1=Nc2ccccc2CN1c1ccccc1
- EC50 [24]: > 50 µM (active)

SMILES: COc1ccc(C2=NCC(=O)N(CC(=O)NCc3ccco3)c3sc4c(c32)CCCC4)cc1OC
- CC50 [1]: > 40 µM (active)

SMILES: O=C(O)CN(CC(=O)O)Cc1cc2c(-c3ccccc3C(=O)O)c3cc(CN(CC(=O)O)CC(=O)O)c(=O)cc-3oc2cc1O
- AC50 [3]: 20 µM (inconclusive)
